In PubChem BioAssay AID1413 (The Scripps Research Institute Molecular Screening Center, 2008):
Calls of active or inactive are those of the source.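 How the source made its calls: active means CC50, the dose killing half the cells, at or below 10 µM, by curve fit or manual estimate; inactive means CC50 above 10 µM.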

System: HeLa viability, CellTiter-Glo ATP luminescence
Assay: viability loss of HeLa cells – cell-based, CellTiter-Glo luminescence, cytotoxicity control for Wee1 degradation inhibitor project, dose response (AID 1413)

**Q.** `O=C(/C=C/c1cccnc1)/C=C/c1cccnc1` was tested. Which CC50 did it give?
**A.** > 49.8 µM (inactive)

**Q.** Which CC50 does the source give for `COc1cccc(C2=CC(c3cccc(OC)c3OC)n3nnnc3N2)c1` (stereo not drawn) here?
**A.** > 49.8 µM (inactive)

**Q.** `COc1ccccc1-c1ccc(SCc2ccccc2F)nn1` was tested. Which CC50 did it give?
**A.** > 49.8 µM (inactive)

**Q.** With `CCCC1=Nc2cc(C(=O)NCc3ccco3)ccc2Sc2ccccc21` as the compound, how does the CC50 read?
**A.** > 49.8 µM (inactive)

**Q.** For `O=C(COc1ccc(C(=O)c2ccc(F)cc2)cc1)NCc1ccc(F)cc1`, which CC50 is on record?
**A.** > 49.8 µM (inactive)

**Q.** With `CCN(CC)c1ccc(/C=N/NC(=O)c2ccco2)cc1` as the compound, how does the CC50 read?
**A.** > 49.8 µM (inactive)

**Q.** How did the CC50 turn out when `CC(=O)Nc1ccc(/C=N/Nc2nc3ccccc3s2)cc1` was run?
**A.** > 49.8 µM (inactive)

**Q.** For `Cc1ccc(/C=N/NC(=O)c2ccc3c(c2)OCCO3)s1`, which CC50 is on record?
**A.** > 49.8 µM (inactive)

**Q.** `Cc1ccnc(NC(=O)CCCOc2cc(=O)n(C)c3ccccc23)c1` was tested. Which CC50 did it give?
**A.** > 49.8 µM (inactive)

**Q.** With `Cc1csc2sc(-c3ccnc(SCC(=O)NCc4ccccc4)n3)c(C)c12` as the compound, how does the CC50 read?
**A.** > 49.8 µM (inactive)

**Q.** Which CC50 does the source give for `COC(=O)C1CCN(C(=O)/C=C/c2ccc(OC)cc2)CC1` here?
**A.** > 49.8 µM (inactive)

**Q.** Which CC50 does the source give for `COc1ccc(NC(=O)/C(Cl)=C(/Cl)S(=O)Cc2ccc(C)cc2)cn1` (stereo not drawn) here?
**A.** 14.5 µM (inactive)

**Q.** For `CCOC(=O)C1=C(c2ccccc2)O/C(=C(/C#N)C(F)(F)F)S1`, which CC50 is on record?
**A.** 7.17 µM

**Q.** With `Cc1ccc(Nc2cc(C)nn2-c2nc(C)cc(=O)[nH]2)cc1` as the compound, how does the CC50 read?
**A.** > 49.8 µM (inactive)

**Q.** For `O=C(/C=C/c1ccccc1)Nc1ccc(Cl)cn1`, which CC50 is on record?
**A.** > 49.8 µM (inactive)

**Q.** How did the CC50 turn out when `C=CS(=O)(=O)c1ccc(Oc2ccc(S(=O)(=O)C=C)cc2)cc1` was run?
**A.** > 49.8 µM (inactive)

**Q.** `Cc1ccc2nc(NCc3ccccc3)[nH]c2c1` was tested. Which CC50 did it give?
**A.** > 49.8 µM (inactive)

**Q.** Which CC50 does the source give for `Cc1cc(Cl)ccc1NC(=S)Nc1ccccn1` here?
**A.** > 49.8 µM (inactive)

**Q.** `O=C1C=CC(O)(c2cc(=O)c3c(O)cc(O)cc3o2)C=C1` was tested. Which CC50 did it give?
**A.** > 49.8 µM (inactive)

**Q.** With `CCN(CC)c1ccc(/C=N/NC(=O)c2cnccn2)cc1` as the compound, how does the CC50 read?
**A.** > 49.8 µM (inactive)

**Q.** For `COc1cccc(/C=N/NC(=O)c2cc3c(OC)c(OC)ccc3[nH]2)c1OC`, which CC50 is on record?
**A.** > 49.8 µM (inactive)

**Q.** How did the CC50 turn out when `COc1ccc(NC(=O)/C(Cl)=C(/Cl)S(=O)Cc2ccccc2)cn1` (stereo not drawn) was run?
**A.** > 16.6 µM (inactive)

**Q.** For `COc1cc(C2=NOC(C(=O)NCc3cccs3)C2)cc(OC)c1OC` (stereo not drawn), which CC50 is on record?
**A.** > 49.8 µM (inactive)

**Q.** Which CC50 does the source give for `O=c1[nH]c2ccccc2nc1/C=C(\O)c1cccs1` here?
**A.** > 49.8 µM (inactive)

**Q.** `Cn1cccc1/C=C1\SC(=Nc2ccccc2)NC1=O` was tested. Which CC50 did it give?
**A.** > 49.8 µM (inactive)

**Q.** Which CC50 does the source give for `COc1ccc(Nc2oc(-c3ccc(OC)cc3)nc2C#N)cc1` here?
**A.** > 49.8 µM (inactive)

**Q.** `Cc1nc2ccccn2c1-c1csc(Nc2cccc(O)c2)n1` was tested. Which CC50 did it give?
**A.** > 49.8 µM (inactive)

**Q.** For `CCOC(=O)N1CCN(C(=O)c2cc(-c3ccc(OCC)cc3)nc3ccccc23)CC1`, which CC50 is on record?
**A.** > 49.8 µM (inactive)

**Q.** How did the CC50 turn out when `O=C(N=Nc1c(O)[nH]c2ccc(Br)cc12)c1ccccc1-n1cccc1` was run?
**A.** > 49.8 µM (inactive)

**Q.** Which CC50 does the source give for `On1onc2c3cc(-c4ccccc4)nc3ccc21` here?
**A.** > 49.8 µM (inactive)

**Q.** `CCOc1cccc(N(C(=O)Cc2cccs2)C(C(=O)NC2CCCCC2)c2cccn2C)c1` (stereo not drawn) was tested. Which CC50 did it give?
**A.** > 49.8 µM (inactive)

**Q.** For `CCN(CC)S(=O)(=O)c1ccc(C(=O)NCCc2ccccn2)cc1`, which CC50 is on record?
**A.** > 49.8 µM (inactive)

**Q.** `O=S(=O)(C/C(=C/CO)S(=O)(=O)c1ccccc1)c1ccccc1` was tested. Which CC50 did it give?
**A.** > 49.8 µM (inactive)

**Q.** For `CCCCS(=O)(=O)/C=C\C=C/S(=O)(=O)CCCC`, which CC50 is on record?
**A.** > 16.6 µM (inactive)

**Q.** With `O=C(Nc1ccc(Cl)c(Cl)c1)Nc1nccs1` as the compound, how does the CC50 read?
**A.** > 49.8 µM (inactive)

**Q.** `O=[N+]([O-])c1ccc(Sc2cccc[n+]2[O-])c2nonc12` was tested. Which CC50 did it give?
**A.** 6.76 µM

**Q.** Which CC50 does the source give for `COc1ccc(/C=N/NC(=O)c2ccc3ccccc3c2)cc1OS(=O)(=O)c1ccc(NC(C)=O)cc1` here?
**A.** > 49.8 µM (inactive)

**Q.** With `Cc1cccn2c1nc(=S)n2C(=O)c1ccco1` as the compound, how does the CC50 read?
**A.** > 49.8 µM (inactive)
